From patent US6727275B2, “Pyrrolidinone derivatives” (UCB, S.A./N.V., priority 2001, dated 2004)

Key:
CCR2 [1] = target: T1, CCR2 (Homo sapiens, UniProt P41597); test: Chemotaxis assay: MCP-1 induced migration of THP-1 cells; format: cell-based; set-up: endogenous in cells; host or cells: THP-1 cells; settings: 3 nM MCP-1, 37° C. for 2 hr, read-out: Inhibition of cell chemotaxis, IC50
T1 sequence (P41597 1-360 isoform P41597-2): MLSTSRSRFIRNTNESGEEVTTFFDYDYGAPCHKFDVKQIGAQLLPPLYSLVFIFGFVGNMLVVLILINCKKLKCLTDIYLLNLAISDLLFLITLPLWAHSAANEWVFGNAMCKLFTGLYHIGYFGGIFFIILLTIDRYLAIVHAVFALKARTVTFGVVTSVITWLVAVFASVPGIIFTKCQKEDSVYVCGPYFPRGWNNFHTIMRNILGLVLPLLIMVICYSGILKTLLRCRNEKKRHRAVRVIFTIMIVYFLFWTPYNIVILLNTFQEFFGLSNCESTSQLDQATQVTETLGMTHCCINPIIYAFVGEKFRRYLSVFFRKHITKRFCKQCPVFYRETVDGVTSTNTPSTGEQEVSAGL
Protocol: Antagonism of CCR2 function is determined by a chemotaxis assay. MCP-1 is prepared in buffer (Hanks+0.1% human serum albumin) at 3 nM concentration and aliquoted into the bottom chambers of a 96-well chemotaxis plate (Neuroprobe). THP-1 cells are suspended in the same buffer at 1×10^7 cells/ml and compound added at various concentrations to the aliquots of cells. The cell and compound mixture is added to the top of the polycarbonate membrane (5 μm pore diameter) and the chemotaxis plate incubated at 37° C. for 2 hr. After the unmigrated cells are scraped off the top of the filter, the plate is gently centrifuged and the membrane removed. Cells which migrate to the bottom chamber are quantitated by counting with a hemacytometer. Spontaneous chemotaxis is determined by measuring cell migration in the absence of chemokine. Chemotaxis of a positive control is determined by measuring cell migration without compound. Inhibition of cell chemotaxis is determined as an IC50.

CCR2 [2] = target: T1, CCR2; test: Binding assay: inhibition of 125I-MCP-1 binding to THP-1 cells; set-up: CCR2 is also expressed in the human monocytic cell line THP-1; endogenous in cells; host or cells: THP-1 (human monocytic cell line), whole cells; settings: THP-1 cells, 0.1 nM 125I-MCP-1, 1 hr at room temperature; read-out: Inhibition of 125I-MCP-1 binding to THP-1 cells, IC50
Protocol: Antagonism of the CCR2 receptor is determined by a binding assay using the human monocytic cell line THP-1. Cells are suspended in assay buffer (RPMI+1% BSA+25 mM HEPES) at 3×10^6 cells/ml and an aliquot (180 μl) added to a 0.5 ml siliconized Eppendorf tube. […] After incubation for 1 hr at room temperature, the cell suspension is centrifuged through oil and the cell pellets counted to quantitate cell-bound ligand. Nonspecific (NS) binding of radioligand is determined by the addition of 100 nM cold MCP-1. Control binding is determined by the addition of buffer without compound.

Compound | IC50 (CCR2 [1]) [µM] | IC50 (CCR2 [2]) [µM] | melting point [°C]
CC(=O)C1=C(O)C(=O)N(c2ccc(Cl)c(C)c2)C1C1CCCCC1 (racemic) [Compound 53, 4-acetyl-1-(4-chloro-3-methylphenyl)-5-cyclohexyl-3-hydroxy-1,5-dihydro-2H-pyrrol-2-one] | ≤ 5 | ≤ 5 | 
CC(=O)C1=C(O)C(=O)N(c2ccc(Cl)c(C)c2)C1C1CCCC1 (racemic) [Compound 69, 4-acetyl-1-(4-chloro-3-methylphenyl)-5-cyclopentyl-3-hydroxy-1,5-dihydro-2H-pyrrol-2-one] | ≤ 5 | ≤ 5 | 
CC(=O)C1=C(O)C(=O)N(c2ccc(Cl)cc2)C1C1CCCCC1 (racemic) [Compound 24, 4-acetyl-1-(4-chlorophenyl)-5-cyclohexyl-3-hydroxy-1,5-dihydro-2H-pyrrol-2-one] | ≤ 5 | ≤ 5 | 
CCOC(=O)OC1=C(C(C)=O)[C@@H](C2CCCCC2)N(c2ccc(Cl)cc2F)C1=O [Compound P1, (5R)-4-acetyl-1-(4-chloro-2-fluorophenyl)-5-cyclohexyl-2-oxo-2,5-dihydro-1H-pyrrol-3-yl ethyl carbonate] |  |  | 74

Next, values leading:

IC50 (CCR2 [1]) [µM] | IC50 (CCR2 [2]) [µM] | melting point [°C] | Compound
≤ 5 | ≤ 5 |  | CC(=O)C1=C(O)C(=O)N(c2ccc(Cl)cc2)[C@@H]1C12CC3CC(CC1C3)C2 [Compound 156, (R)-4-acetyl-1-(4-chlorophenyl)-3-hydroxy-5-tricyclo[3.3.1.0˜3,7˜]non-3-yl-1,5-dihydro-2H-pyrrol-2-one]
≤ 5 | ≤ 5 |  | CC(=O)C1=C(O)C(=O)N(c2ccc(C)cc2)C1C1CCCCC1 (racemic) [Compound 10, 4-acetyl-5-cyclohexyl-3-hydroxy-1-(4-methylphenyl)-1,5-dihydro-2H-pyrrol-2-one]
